Laboratory results taken from patent US20090209536A1, “AMINOQUINAZOLINE CANNABINOID RECEPTOR MODULATORS FOR TREATMENT OF DISEASE” (KALYPSYS, INC., priority 2007, published 2009).
Read-outs that look alike come from different tables or passages of the source.

Columns and labels:
[1] = biological target: T1, human cannabinoid receptor type 1 (Homo sapiens, UniProt P21554); assay: Human CB1 Radioligand Binding Assay (basis of selectivity, CB2 vs. CB1); conditions: CB1: HEK 293 EBNA cells expressing human CB1; CB2: CHO CB2 membranes
T1 construct: purchased Perkin Elmer RBHCB1M; host or cells: HEK 293 EBNA cells
Description: 2. Human CB1 Radioligand Binding Assay
The incubation buffer was composed of 50 mM Tris-HCl pH 7.4, 2.5 mM EDTA, 5 mM MgCl2, 5.0 mg/ml fatty acid free BSA and the wash buffer was composed of 50 mM Tris-HCl pH 7.4, 2.5 mM EDTA, 5 mM MgCl2, 0.5 mg/ml fatty acid free BSA.

[2] = biological target: T2, human cannabinoid receptor type 2 (Homo sapiens, UniProt P34972); assay: Human CB2 Radioligand Binding Assay; conditions: membranes from stably transfected CHO CB2 cells
T2 construct: expressed in transfected cells; membrane preparation
Procedure, shortened: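 Test compounds (10 uM final, or dose-response) competed with [3H]CP-55,940, used at the Kd determined per membrane lot, for binding to stable human CB2-CHO membranes over 90 min at 30° C in pH 7.4 Tris/EGTA/MgCl2/BSA buffer. GF/C filtration then scintillation counting; 100 nM CP-55,940 defined 100% efficacy.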

[3] = competition with [3H] CP-55,940, read-out: CB2 Ligand Binding Asssay EC50
[4] = CB2 Ligand Binding Asssay EC50, competition with [3H] CP-55,940

T2 sequence (P34972 whole entry): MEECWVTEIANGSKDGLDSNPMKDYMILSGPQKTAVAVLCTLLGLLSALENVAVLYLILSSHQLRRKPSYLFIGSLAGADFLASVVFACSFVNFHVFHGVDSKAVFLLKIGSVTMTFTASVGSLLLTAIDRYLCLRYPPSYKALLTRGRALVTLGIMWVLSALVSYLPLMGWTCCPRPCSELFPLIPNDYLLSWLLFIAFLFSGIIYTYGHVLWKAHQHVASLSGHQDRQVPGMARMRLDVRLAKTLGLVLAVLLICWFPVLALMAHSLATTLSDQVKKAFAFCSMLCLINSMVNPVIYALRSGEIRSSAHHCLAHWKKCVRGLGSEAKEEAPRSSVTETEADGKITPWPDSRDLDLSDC
T1 sequence (P21554 whole entry): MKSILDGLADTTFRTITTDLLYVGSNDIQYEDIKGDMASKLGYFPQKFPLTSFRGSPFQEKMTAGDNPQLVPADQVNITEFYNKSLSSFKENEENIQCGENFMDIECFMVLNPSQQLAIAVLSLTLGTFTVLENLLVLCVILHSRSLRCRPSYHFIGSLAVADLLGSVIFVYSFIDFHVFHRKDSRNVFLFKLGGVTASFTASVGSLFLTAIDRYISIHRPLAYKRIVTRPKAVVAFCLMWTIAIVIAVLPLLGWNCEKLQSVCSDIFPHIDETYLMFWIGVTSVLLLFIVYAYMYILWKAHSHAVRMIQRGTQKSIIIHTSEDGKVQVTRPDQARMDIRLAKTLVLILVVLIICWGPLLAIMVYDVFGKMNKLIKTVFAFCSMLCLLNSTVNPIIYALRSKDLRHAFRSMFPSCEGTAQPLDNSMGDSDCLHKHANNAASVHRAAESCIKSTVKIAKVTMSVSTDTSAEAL

| Compound | Selectivity, CB2 vs. CB1 [1] | EC50 [2, 3] [nM] | EC50 [2, 4] [nM] |
| --- | --- | --- | --- |
| CC(C)(C)c1ccc(-c2nc(NCC3CC3)c3ccccc3n2)cc1 [Example 130, 2-(4-tert-Butylphenyl)quinazolin-4-yl cyclopropylmethylamine] | + (+ indicates > 10−fold) | < 1000 | – |
| CN(c1nc(-c2ccc(C(C)(C)C)cc2)nc2ccccc12)C1CCCCC1 [Example 131, 2-(4-tert-Butylphenyl)quinazolin-4-yl cyclohexylmethylamine] | − (− indicates ≦ 10−fold) | < 1000 | – |
| CN(CC1CC1)c1nc(-c2ccc(C(C)(C)C)cc2)nc2ccccc12 [Example 132, 2-(4-tert-Butylphenyl)quinazolin-4-yl cyclopropylmethyl-N-methylamine] | − (− indicates ≦ 10−fold) | < 1000 | – |
| CC(C)(C)c1ccc(-c2nc(Nc3ccccc3Cl)c3ccccc3n2)cc1 [Example 133, 2-(4-tert-Butylphenyl)quinazolin-4-yl 2-chlorophenylamine] | − (− indicates ≦ 10−fold) | > 1000 | – |
| CN(c1ccccc1Cl)c1nc(-c2ccc(C(C)(C)C)cc2)nc2ccccc12 [Example 134, 2-(4-tert-Butylphenyl)quinazolin-4-yl 2-chlorophenyl-N-methylamine] | − (− indicates ≦ 10−fold) | < 1000 | – |
| c1ccc2c(N3CCCCC3)nc(C3CCCC3)nc2c1 [Example 136, 2-Cyclopentyl-4-piperidin-1-ylquinazoline] | − (− indicates ≦ 10−fold) | > 1000 | – |
| c1ccc2c(N3CCOCC3)nc(C3CCCC3)nc2c1 [Example 137, 2-Cyclopentyl-4-morpholin-4-ylquinazoline] | − (− indicates ≦ 10−fold) | > 1000 | – |
| CN1CCN(c2nc(C3CCCC3)nc3ccccc23)CC1 [Example 138, 2-Cyclopentyl-4-(4-methylpiperazin-1-yl)quinazoline] | + (+ indicates > 10−fold) | < 1000 | – |
| FC(F)(F)Oc1ccc(-c2nc(N3CCCC3)c3ccccc3n2)cc1 [Example 139, 4-Pyrrolidin-1-yl-2-(4-trifluoromethoxyphenyl)quinazoline] | − (− indicates ≦ 10−fold) | < 1000 | – |
| FC(F)(F)Oc1ccc(-c2nc(N3CCCCC3)c3ccccc3n2)cc1 [Example 140, 4-Piperidin-1-yl-2-(4-trifluoromethoxyphenyl)quinazoline] | − (− indicates ≦ 10−fold) | < 1000 | – |
| FC(F)(F)Oc1ccc(-c2nc(N3CCOCC3)c3ccccc3n2)cc1 [Example 141, 4-Morpholin-4-yl-2-(4-trifluoromethoxyphenyl)quinazoline] | − (− indicates ≦ 10−fold) | > 1000 | – |
| CN1CCN(c2nc(-c3ccc(OC(F)(F)F)cc3)nc3ccccc23)CC1 [Example 142, 4-(4-Methylpiperazin-1-yl)-2-(4-trifluoromethoxyphenyl)quinazoline] | − (− indicates ≦ 10−fold) | < 1000 | – |
| CN(c1ccc(C(C)(C)C)cc1)c1nc(-c2ccc(OC(F)(F)F)cc2)nc2ccccc12 [Example 144, (4-tert-Butylphenyl)methyl-[2-(4-trifluoromethoxyphenyl)quinazolin-4-yl]amine] | − (− indicates ≦ 10−fold) | > 1000 | – |
| CC(C)c1nc(N2CCCC2)c2ccccc2n1 [Example 145, 2-Isopropyl-4-pyrrolidin-1-ylquinazoline] | − (− indicates ≦ 10−fold) | > 1000 | – |
| CC(C)c1nc(N2CCCCC2)c2ccccc2n1 [Example 146, 2-Isopropyl-4-piperidin-1-ylquinazoline] | − (− indicates ≦ 10−fold) | > 1000 | – |
| CC(C)c1nc(N2CCOCC2)c2ccccc2n1 [Example 147, 2-Isopropyl-4-morpholin-4-ylquinazoline] | − (− indicates ≦ 10−fold) | – | > 1000 |
| CC(C)c1nc(N2CCN(C)CC2)c2ccccc2n1 [Example 148, 2-Isopropyl-4-(4-methylpiperazin-1-yl)quinazoline] | − (− indicates ≦ 10−fold) | > 1000 | – |
| Fc1ccccc1-c1nc(N2CCOCC2)c2ccccc2n1 [Example 149, 2-(2-Fluorophenyl)-4-morpholin-4-ylquinazoline] | − (− indicates ≦ 10−fold) | > 1000 | – |
| Fc1ccccc1-c1nc(N2CCCCC2)c2ccccc2n1 [Example 150, 2-(2-Fluorophenyl)-4-piperidin-1-ylquinazoline] | − (− indicates ≦ 10−fold) | < 1000 | – |

| Compound | Selectivity, CB2 vs. CB1 [1] | EC50 [2, 3] [nM] | EC50 [2, 4] [nM] |
| --- | --- | --- | --- |
| Fc1ccccc1-c1nc(N2CCCC2)c2ccccc2n1 [Example 151, 2-(2-Fluorophenyl)-4-pyrrolidin-1-ylquinazoline] | − (− indicates ≦ 10−fold) | < 1000 | – |
| CN1CCN(c2nc(-c3ccccc3F)nc3ccccc23)CC1 [Example 152, 2-(2-Fluorophenyl)-4-(4-methylpiperazin-1-yl)quinazoline] | + (+ indicates > 10−fold) | < 1000 | – |
| CC(=O)N1CCN(c2nc(-c3ccccc3F)nc3ccccc23)CC1 [Example 153, 1-(4-(2-(2-Fluorophenyl)quinazolin-4-yl)piperazin-1-yl)ethanone] | + (+ indicates > 10−fold) | < 1000 | – |
| CC(=O)N1CCN(c2nc(-c3cccc(F)c3)nc3ccccc23)CC1 [Example 154, 1-(4-(2-(3-Fluorophenyl)quinazolin-4-yl)piperazin-1-yl)ethanone] | + (+ indicates > 10−fold) | < 1000 | – |
| Cc1ccccc1-c1nc(N2CCCC2)c2ccccc2n1 [Example 155, 4-Pyrrolidin-1-yl-2-o-tolylquinazoline] | − (− indicates ≦ 10−fold) | > 1000 | – |
| Cc1ccccc1-c1nc(N2CCOCC2)c2ccccc2n1 [Example 156, 4-Morpholin-4-yl-2-o-tolylquinazoline] | − (− indicates ≦ 10−fold) | > 1000 | – |
| Cc1ccccc1-c1nc(N2CCN(C)CC2)c2ccccc2n1 [Example 157, 4-(4-Methylpiperazin-1-yl)-2-o-tolylquinazoline] | + (+ indicates > 10−fold) | < 1000 | – |
| COc1ccc2c(N3CCN(C)CC3)nc(C3CCCCC3)nc2c1 [Example 158, 2-Cyclohexyl-7-methoxy-4-(4-methylpiperazin-1-yl)quinazoline] | − (− indicates ≦ 10−fold) | > 1000 | – |
| COc1ccc2c(N3CCCC3)nc(C3CCCCC3)nc2c1 [Example 159, 2-Cyclohexyl-7-methoxy-4-(pyrrolidin-1-yl)quinazoline] | + (+ indicates > 10−fold) | > 1000 | – |
| Clc1ccc2c(N3CCCC3)nc(C3CCCCC3)nc2c1 [Example 160, 7-Chloro-2-cyclohexyl-4-(pyrrolidin-1-yl)quinazoline] | − (− indicates ≦ 10−fold) | < 1000 | – |
| CN1CCN(c2nc(C3CCCCC3)nc3ccc(Cl)cc23)CC1 [Example 161, 6-Chloro-2-cyclohexyl-4-(4-methylpiperazin-1-yl)quinazoline] | − (− indicates ≦ 10−fold) | < 1000 | – |
| COc1ccc2nc(C3CCCCC3)nc(N3CCCC3)c2c1 [Example 162, 2-Cyclohexyl-6-methoxy-4-(pyrrolidin-1-yl)quinazoline] | + (+ indicates > 10−fold) | < 1000 | – |
| COc1ccc2nc(C3CCCCC3)nc(N3CCN(C)CC3)c2c1 [Example 163, 2-Cyclohexyl-6-methoxy-4-(4-methylpiperazin-1-yl)quinazoline] | − (− indicates ≦ 10−fold) | < 1000 | – |
| Clc1ccc2c(N3CCCCC3)nc(C3CCCCC3)nc2c1 [Example 164, 7-Chloro-2-cyclohexyl-4-(piperidin-1-yl)quinazoline] | + (+ indicates > 10−fold) | < 1000 | – |
| Clc1ccc2c(N3CCOCC3)nc(C3CCCCC3)nc2c1 [Example 165, 4-(7-Chloro-2-cyclohexylquinazolin-4-yl)morpholine] | + (+ indicates > 10−fold) | – | > 1000 |
| CN1CCN(c2nc(C3CCCCC3)nc3cc(Cl)ccc23)CC1 [Example 166, 7-Chloro-2-cyclohexyl-4-(4-methylpiperazin-1-yl)quinazoline] | + (+ indicates > 10−fold) | < 1000 | – |
| Clc1ccc2nc(C3CCCCC3)nc(N3CCCC3)c2c1 [Example 167, 6-Chloro-2-cyclohexyl-4-(pyrrolidin-1-yl)quinazoline] | + (+ indicates > 10−fold) | < 1000 | – |
| CN1CCN(c2nc(-c3ccccc3Cl)nc3ccc(C(C)(C)C)cc23)CC1 [Example 168, 6-tert-Butyl-2-(2-chlorophenyl)-4-(4-methylpiperazin-1-yl)quinazoline] | + (+ indicates > 10−fold) | < 1000 | – |
| CC(C)(C)c1ccc2nc(-c3ccccc3Cl)nc(N3CCSCC3)c2c1 [Example 169, 4-(6-tert-Butyl-2-(2-chlorophenyl)quinazolin-4-yl)thiomorpholine] | + (+ indicates > 10−fold) | < 1000 | – |
